Measurements taken from patent US20120157471A1, “BENZIMIDAZOLE DERIVATIVES” (PFIZER INC., priority 2009, published 2012).

Key:
[1] = target: T1, human Smo (amino acids 181-787) (Homo sapiens, UniProt Q99835); test: Smo radioligand competition binding assay (displacement of 3H-PF-03451358 from HEK293 membranes); conditions: for inhibition at 0.05 µM: read-out: SMO % inh. @ 0.05 μM; for IC50: radioligand competition binding
T1 construct: expressed in transfected cells; membrane preparation
Outline: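 Displacement of 3 nM tritiated PF-03451358 measured by filtration and scintillation counting after 2 h at room temperature, using 40 μg/well HEK293 membranes bearing cell-surface Smo 181-787, pH 7.5 buffer. Specific binding defined against 30 μM unlabelled ligand; IC50 via variable-slope sigmoidal fit.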

Gli-Luc/MEF cells (Smo) = test: Gli-Luc/MEF assay (Shh-stimulated luciferase reporter under the Gli response element); type: cell-based, mouse
Outline: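 IC50 derived from luminescence (Bright-Glo) after 48 h at 37° C, 5% CO2, with compound at […] (3-fold dilutions) added together with mouse Shh at 2 μg/mL final. Cells: MEFs from Gli-Luc transgenic mice.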

[2] = 0.05 μM test compound, displacement of 3H-PF-03451358

T1 sequence (Q99835 181-787): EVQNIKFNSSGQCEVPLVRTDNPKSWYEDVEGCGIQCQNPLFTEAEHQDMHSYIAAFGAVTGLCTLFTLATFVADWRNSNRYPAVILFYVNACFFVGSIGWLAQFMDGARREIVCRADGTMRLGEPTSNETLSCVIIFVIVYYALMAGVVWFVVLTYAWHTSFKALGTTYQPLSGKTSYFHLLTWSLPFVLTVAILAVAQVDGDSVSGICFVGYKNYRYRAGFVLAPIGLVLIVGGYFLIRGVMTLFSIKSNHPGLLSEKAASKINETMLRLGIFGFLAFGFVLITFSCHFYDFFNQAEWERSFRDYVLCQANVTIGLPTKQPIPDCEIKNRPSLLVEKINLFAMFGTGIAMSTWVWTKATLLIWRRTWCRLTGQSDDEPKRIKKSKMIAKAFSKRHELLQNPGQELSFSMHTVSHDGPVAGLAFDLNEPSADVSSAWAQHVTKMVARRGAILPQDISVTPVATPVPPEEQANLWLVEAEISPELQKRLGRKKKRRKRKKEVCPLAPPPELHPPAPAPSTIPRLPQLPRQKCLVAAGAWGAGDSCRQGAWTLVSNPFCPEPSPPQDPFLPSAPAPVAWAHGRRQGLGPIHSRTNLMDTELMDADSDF

COCc1nnc2n1CCN(c1cc(-c3nc4ccccc4n3C)c(Cl)cn1)CC2 [Example A-93, 7-[5-chloro-4-(1-methyl-1H-benzimidazol-2-yl)pyridin-2-yl]-3-(methoxymethyl)-6,7,8,9-tetrahydro-5H-[1,2,4]triazolo[4,3-d][1,4]diazepine]
inhibition at 0.05 µM [1, 2]: 87% | IC50 [1]: 53 nM | IC50 (Gli-Luc/MEF cells (Smo); Mus musculus, MEF, 48 h): 31 nM

CC(=O)N(C)C1CCN(c2cc(-c3nc4ccccc4n3C)c(Cl)cn2)C1 (centres unmarked) [Example A-183, N-{1-[5-chloro-4-(1-methyl-1H-benzimidazol-2-yl)pyridin-2-yl]pyrrolidin-3-yl}-N-methylacetamide]
inhibition at 0.05 µM [1, 2]: 89% | IC50 [1]: 81 nM | IC50 (Gli-Luc/MEF cells (Smo); Mus musculus, MEF, 48 h): 65 nM

CC(=O)N1CCN(c2ccc(Cl)c(-c3nc4ccccc4n3C)n2)CC1 [Example B-2, 2-[6-(4-acetylpiperazin-1-yl)-3-chloropyridin-2-yl]-1-methyl-1H-benzimidazole]
inhibition at 0.05 µM [1, 2]: 95% | IC50 [1]: 18 nM | IC50 (Gli-Luc/MEF cells (Smo); Mus musculus, MEF, 48 h): 32 nM

Cn1c(-c2cc(N3CCC(O)(CO)CC3)ncc2Cl)nc2ccccc21 [Example A-69, 1-[5-chloro-4-(1-methyl-1H-benzimidazol-2-yl)pyridin-2-yl]-4-(hydroxymethyl)piperidin-4-ol]
inhibition at 0.05 µM [1, 2]: 94% | IC50 [1]: 27 nM | IC50 (Gli-Luc/MEF cells (Smo); Mus musculus, MEF, 48 h): 10 nM

CC(C)NC(=O)NC1CN(c2cc(-c3nc4ccccc4n3C)c(Cl)cn2)C1 [Example A-188, 1-{1-[5-chloro-4-(1-methyl-1H-benzimidazol-2-yl)pyridin-2-yl]azetidin-3-yl}-3-isopropylurea]
inhibition at 0.05 µM [1, 2]: 97% | IC50 [1]: 15 nM | IC50 (Gli-Luc/MEF cells (Smo); Mus musculus, MEF, 48 h): 10 nM

CNC(=O)COC1CCN(c2cc(-c3nc4ccccc4n3C)c(Cl)cn2)CC1 [Example A-84, 2-({1-[5-chloro-4-(1-methyl-1H-benzimidazol-2-yl)pyridin-2-yl]piperidin-4-yl}oxy)-N-methylacetamide]
inhibition at 0.05 µM [1, 2]: 91% | IC50 [1]: 21 nM | IC50 (Gli-Luc/MEF cells (Smo); Mus musculus, MEF, 48 h): 42 nM

Cn1c(-c2cc(N3CC(NS(C)(=O)=O)C3)ncc2Cl)nc2ccccc21 [Example A-41, N-{1-[5-chloro-4-(1-methyl-1H-benzimidazol-2-yl)pyridin-2-yl]azetidin-3-yl}methanesulfonamide]
inhibition at 0.05 µM [1, 2]: 98% | IC50 [1]: 7 nM | IC50 (Gli-Luc/MEF cells (Smo); Mus musculus, MEF, 48 h): 4 nM

Cn1c(-c2cc(N3CCN(C(=O)CO)CC3)ncc2Cl)nc2ccccc21 [Example A-202, 2-{4-[5-chloro-4-(1-methyl-1H-benzimidazol-2-yl)pyridin-2-yl]piperazin-1-yl}-2-oxoethanol]
inhibition at 0.05 µM [1, 2]: 97% | IC50 [1]: 11 nM | IC50 (Gli-Luc/MEF cells (Smo); Mus musculus, MEF, 48 h): 9 nM

Cc1cnc(N2CCC(S(C)(=O)=O)CC2)cc1-c1nc2ccccc2n1C [Example E-5, 1-methyl-2-{5-methyl-2-[4-(methylsulfonyl)piperidin-1-yl]pyridin-4-yl)-1H-benzimidazole]
inhibition at 0.05 µM [1, 2]: 89% | IC50 [1]: 59 nM | IC50 (Gli-Luc/MEF cells (Smo); Mus musculus, MEF, 48 h): 58.9 nM

Cn1c(-c2cc(N3CCN(CCO)CC3)ncc2Cl)nc2ccccc21 [Example A-213, 2-{4-[5-chloro-4-(1-methyl-1H-benzimidazol-2-yl)pyridin-2-yl]piperazin-1-yl}ethanol]
inhibition at 0.05 µM [1, 2]: 83% | IC50 [1]: 78 nM | IC50 (Gli-Luc/MEF cells (Smo); Mus musculus, MEF, 48 h): 56.8 nM

CC(=O)N[C@H]1[C@@H]2CN(c3cc(-c4nc5ccccc5n4C)c(Cl)cn3)C[C@@H]21 [Example A-9, N-{(1R,5S,6S)-3-[5-chloro-4-(1-methyl-1H-benzimidazol-2-yl)pyridin-2-yl]-3-azabicyclo[3.1.0]hex-6-yl}acetamide]
inhibition at 0.05 µM [1, 2]: 74% | IC50 [1]: 189 nM | IC50 (Gli-Luc/MEF cells (Smo); Mus musculus, MEF, 48 h): 23 nM

CNC(=O)NC1CCN(c2cc(-c3nc4ccccc4n3C)c(Cl)cn2)C1 (centres unmarked) [Example A-176, 1-{1-[5-chloro-4-(1-methyl-1H-benzimidazol-2-yl)pyridin-2-yl]pyrrolidin-3-yl}-3-methylurea]
inhibition at 0.05 µM [1, 2]: 82% | IC50 [1]: 84 nM | IC50 (Gli-Luc/MEF cells (Smo); Mus musculus, MEF, 48 h): 22 nM

COC(=O)N1CCN(c2cc(-c3nc4ccccc4n3C)c(F)cn2)CC1 [Example D-2, methyl 4-[5-fluoro-4-(1-methyl-1H-benzimidazol-2-yl)pyridin-2-yl]piperazine-1-carboxylate]
inhibition at 0.05 µM [1, 2]: 95% | IC50 [1]: 13 nM | IC50 (Gli-Luc/MEF cells (Smo); Mus musculus, MEF, 48 h): 13 nM

COCC(=O)N1CCN(c2ncc(Cl)c(-c3nc4ccccc4n3C)n2)CC1 [Example C-16, 2-{5-chloro-2-[4-(methoxyacetyl)piperazin-1-yl]pyrimidin-4-yl}-1-methyl-1H-benzimidazole]
inhibition at 0.05 µM [1, 2]: 99% | IC50 [1]: 14 nM | IC50 (Gli-Luc/MEF cells (Smo); Mus musculus, MEF, 48 h): 12.7 nM

Cn1c(-c2ccnc(N3CCS(=O)(=O)CC3)c2)nc2ccccc21 [Example A-11, 2-[2-(1,1-dioxidothiomorpholin-4-yl)pyridin-4-yl]-1-methyl-1H-benzimidazole]
inhibition at 0.05 µM [1, 2]: 52% | IC50 [1]: 486 nM | IC50 (Gli-Luc/MEF cells (Smo); Mus musculus, MEF, 48 h): 275 nM

CN(CCCO)c1cc(-c2nc3ccccc3n2C)c(Cl)cn1 [Example A-163, 3-{[5-chloro-4-(1-methyl-1H-benzimidazol-2-yl)pyridin-2-yl](methyl)amino}propan-1-ol]
inhibition at 0.05 µM [1, 2]: 98% | IC50 [1]: 17 nM | IC50 (Gli-Luc/MEF cells (Smo); Mus musculus, MEF, 48 h): 14 nM

CN(C1CCN(c2cc(-c3nc4ccccc4n3C)c(Cl)cn2)C1)S(C)(=O)=O (centres unmarked) [Example A-181, N-{1-[5-chloro-4-(1-methyl-1H-benzimidazol-2-yl)pyridin-2-yl]pyrrolidin-3-yl}-N-methylmethanesulfonamide]
inhibition at 0.05 µM [1, 2]: 98% | IC50 [1]: 11 nM | IC50 (Gli-Luc/MEF cells (Smo); Mus musculus, MEF, 48 h): 9 nM

Cn1c(-c2cc(N3CCN(CCS(C)(=O)=O)CC3)ncc2Cl)nc2ccccc21 [Example A-61, 2-(5-chloro-2-{4-[2-(methylsulfonyl)ethyl]piperazin-1-yl}pyridin-4-yl)-1-methyl-1H-benzimidazole]
SMO % inh. @ 0.05 μM ([1]; 0.05 μM test compound, displacement of 3H-PF-03451358, 0.05 µM): 96% | IC50 [1]: 18 nM | IC50 (Gli-Luc/MEF cells (Smo); 48 hours): 73 nM

COCCc1nnc2n1CCN(c1cc(-c3nc4ccccc4n3C)c(Cl)cn1)C2 [Example A-83, 7-[5-chloro-4-(1-methyl-1H-benzimidazol-2-yl)pyridin-2-yl]-3-(2-methoxyethyl)-5,6,7,8-tetrahydro[1,2,4]triazolo[4,3-a]pyrazine]
inhibition at 0.05 µM [1, 2]: 91% | IC50 [1]: 49 nM | IC50 (Gli-Luc/MEF cells (Smo); Mus musculus, MEF, 48 h): 23 nM

Cn1c(-c2nc(N3CCC(S(C)(=O)=O)CC3)ncc2Cl)nc2ccccc21 [Example C-14, 2-{5-chloro-2-[4-(methylsulfonyl)piperidin-1-yl]pyrimidin-4-yl}-1-methyl-1H-benzimidazole]
inhibition at 0.05 µM [1, 2]: 90% | IC50 [1]: 43 nM | IC50 (Gli-Luc/MEF cells (Smo); Mus musculus, MEF, 48 h): 37 nM

Cc1cn(C2CN(c3cc(-c4nc5ccccc5n4C)c(Cl)cn3)C2)c(=O)[nH]c1=O [Example A-121, 1-{1-[5-chloro-4-(1-methyl-1H-benzimidazol-2-yl)pyridin-2-yl]azetidin-3-yl}-5-methylpyrimidine-2,4(1H,3H)-dione]
inhibition at 0.05 µM [1, 2]: 62% | IC50 (Gli-Luc/MEF cells (Smo); Mus musculus, MEF, 48 h): 94 nM

Cn1c(-c2cc(N3CCN(c4ccc(C#N)cn4)CC3)ncc2Cl)nc2ccccc21 [Example A-189, 6-{4-[5-chloro-4-(1-methyl-1H-benzimidazol-2-yl)pyridin-2-yl]piperazin-1-yl}nicotinonitrile]
inhibition at 0.05 µM [1, 2]: 99% | IC50 [1]: 11 nM | IC50 (Gli-Luc/MEF cells (Smo); Mus musculus, MEF, 48 h): 0.79 nM

CCC(=O)N1CCN(c2cc(-c3nc4ccccc4n3C)c(F)cn2)CC1 [Example D-4, 2-[5-fluoro-2-(4-propionylpiperazin-1-yl)pyridin-4-yl]-1-methyl-1H-benzimidazole]
inhibition at 0.05 µM [1, 2]: 98% | IC50 [1]: 19 nM | IC50 (Gli-Luc/MEF cells (Smo); Mus musculus, MEF, 48 h): 20 nM

Cn1c(-c2cc(N3CCC(O)CC3)ncc2Cl)nc2ccccc21 [Example A-25, 1-[5-chloro-4-(1-methyl-1H-benzimidazol-2-yl)pyridin-2-yl]piperidin-4-ol]
inhibition at 0.05 µM [1, 2]: 91% | IC50 [1]: 8 nM | IC50 (Gli-Luc/MEF cells (Smo); Mus musculus, MEF, 48 h): 7 nM
